In US20220401468A1 (priority 2021, published 2022):

Test system: VSV-eGFP-SARS-CoV-2
Assay type: cell-based, VSV-SARS-CoV-2 chimeric virus

Substance: Heparin sodium salt
- half-maximal inhibitory concentration (IC50), infected (GFP+) cells: 0.03 µg/mL
